From publication PMC10528299, “Targeting FAK/PYK2 with SJP1602 for Anti-Tumor Activity in Triple-Negative Breast Cancer” (Current Issues in Molecular Biology, 2023)
“And” between values parts separate entries of the source, which are not always exact repeats. Equal values may be shown once.

Assays:
[1] = test system: MDA-MB-231 xenograft; assay: MDA-MB-231 xenograft mouse model
Protocol: (§2) Upon establishment of tumors, with an average tumor volume reaching approximately 100 mm^3, mice were grouped and subjected to daily oral dosing. […] The duration of drug administration was defined for 2 weeks based on the growth rate of the vehicle group of each xenografted tumor. The tumor volume was measured three times a week for potency measurement, and the body weight of mice was also measured three times a week for toxicity evaluation in vivo.

[2] = test system: BT-549; assay: 3D spheroid assay BT-549; type: cell-based; details: Homo sapiens, 96 h; BT-549, 4 days treatment; read-out: IC50 3D spheroid cell viability
Protocol: (§1) Breast cancer cell lines were cultured in medium with or without 2% Matrigel (Corning, NY, USA) for 3 days in each 96-well ultra-low attachment round plate to form a single spheroid at a density of 3 × 10^3 cells/well. SJP1602 was dissolved in DMSO and treated for 4 days at concentrations ranging from 200 nM to 20 μM. Cell viability was quantified according to the manufacturer’s instructions using a CellTiter-Glo 3D cell viability assay (Promega, Madison, WI, USA). Luminescence was measured using the Tecan Spark 10M.

[3] = test system: MDA-MB-231; assay: 3D spheroid assay MDA-MB-231; type: cell-based; details: Homo sapiens, 96 h; MDA-MB-231, 2% Matrigel, 4 days treatment; read-out: IC50 3D spheroid cell viability
Protocol: as §1

[4] = test system: 4T1; assay: 3D spheroid assay 4T1; type: cell-based; details: Mus musculus, 96 h; 4T1, 4 days treatment; read-out: IC50 3D spheroid cell viability
Protocol: as §1

[5] = test system: BT-549 xenograft; assay: BT-549 xenograft mouse model
Protocol: as §2

[6] = test system: MDA-MB-453 xenograft; assay: MDA-MB-453 xenograft mouse model; details: for TGI: 56 days
Protocol: as §2

[7] = test system: MDA-MB-231 cells; assay: Transwell cell migration assay; type: cell-based, human; details: 5 µM, 16 h
Protocol: Cell migration capacity was analyzed using the transwell migration assay. The 24-well chambers (8 μm pore size) were obtained from Corning (Corning, NY, USA). Cells treated with vehicle or FAK inhibitors (SJP1602, VS-6063, GSK2256098) at a concentration of 5 μM were resuspended in serum-free media and 5 × 10^4 cells were added to the upper compartment of the transwell chambers. Fresh culture medium with 5% FBS was added to the lower compartment. After 16 h, cells on the upper side of the filter were removed using cotton swabs. The underside of the filter was fixed in 100% methanol, washed in PBS, and stained using crystal violet. Migrated cells were analyzed using a microscope (Nikon, TE2000). Image analysis was performed using the color analysis function in Adobe Photoshop 2021 (Version 22.4.2, Adobe (San Jose, CA, USA)). Quantitative data were obtained from color measurement records in Adobe Photoshop 2021.

[8] = test system: MDA-MB-231 cells; assay: Colony formation assay; type: cell-based, human; details: 1 μM or 2 μM, 11 days
Protocol: MDA-MB-231 cells were seeded at 2.5 × 10^2 cells/well in 12-well plates. FAK inhibitors (SJP1602, VS-6063, GSK2256098) were added 24 h post seeding without changing the media. After 7 days, the cells were replaced with fresh media containing 10% FBS and the same initial concentration of the FAK inhibitor. After 11 days, the cells were fixed with 4% PFA for 10 m at room temperature and stained with 0.5% crystal violet dissolved in 25% methanol for 20 min at room temperature. The cells were then washed with distilled water, dried, and images of the entire plate were obtained.

[9] = Cytotoxicity on normal cell line WI38; type: cell-based; details: human, WI38 cells (normal cell line); read-out: Cytotoxicity on Normal Cell Lines IC50
[10] = Cytotoxicity on normal cell line Fa2N4; type: cell-based; details: human, Fa2N4 cells (normal cell line); read-out: Cytotoxicity on Normal Cell Lines IC50
[11] = test system: MDA-MB-231 cells; assay: 2D cell invasion assay (Boyden chamber, Matrigel); type: cell-based, human; details: 5 μM, 48 h, Matrigel-coated Boyden chamber
Protocol: Cell invasion capacity was analyzed using the Boyden chamber assay. The 24-well Boyden chambers with Matrigel-coated filters (8 μm pore size) were obtained from Becton-Dickinson (San Diego, CA, USA). Cells treated with vehicle or FAK inhibitors (SJP1602, VS-6063, GSK2256098) at a concentration of 5 μM were resuspended in serum-free media and 5 × 10^5 cells were added to the Matrigel-coated upper compartment of the invasion chambers. Fresh culture medium with 5% FBS was added to the lower compartment. After 48 h, cells on the upper side of the filter were removed using cotton swabs. The underside of the filter was fixed in 100% methanol, washed in PBS, and stained using crystal violet. Cells that invaded the Matrigel were analyzed using a microscope (Nikon, TE2000). Image analysis was performed using the color analysis function in Adobe Photoshop 2021 (Version 22.4.2, Adobe, Adobe (San Jose, CA, USA)). Quantitative data were obtained from color measurement records in Adobe Photoshop 2021.

[12] = Cytotoxicity on normal cell line HEK293T; type: cell-based; details: human, HEK293T cells (normal cell line); read-out: Cytotoxicity on Normal Cell Lines IC50
[13] = Toxicity and body weight in xenograft mice; details: mouse xenograft experiments, 20-80 mg/kg po daily
Protocol: as §2

[14] = target: T1, PYK2 (Homo sapiens, UniProt Q14289); assay: ADP-Glo kinase assay PYK2; type: biochemical; details: mean ± SEM (n = 3)
T1 construct: purchased Promega V4083
T1 sequence (Q14289 whole entry): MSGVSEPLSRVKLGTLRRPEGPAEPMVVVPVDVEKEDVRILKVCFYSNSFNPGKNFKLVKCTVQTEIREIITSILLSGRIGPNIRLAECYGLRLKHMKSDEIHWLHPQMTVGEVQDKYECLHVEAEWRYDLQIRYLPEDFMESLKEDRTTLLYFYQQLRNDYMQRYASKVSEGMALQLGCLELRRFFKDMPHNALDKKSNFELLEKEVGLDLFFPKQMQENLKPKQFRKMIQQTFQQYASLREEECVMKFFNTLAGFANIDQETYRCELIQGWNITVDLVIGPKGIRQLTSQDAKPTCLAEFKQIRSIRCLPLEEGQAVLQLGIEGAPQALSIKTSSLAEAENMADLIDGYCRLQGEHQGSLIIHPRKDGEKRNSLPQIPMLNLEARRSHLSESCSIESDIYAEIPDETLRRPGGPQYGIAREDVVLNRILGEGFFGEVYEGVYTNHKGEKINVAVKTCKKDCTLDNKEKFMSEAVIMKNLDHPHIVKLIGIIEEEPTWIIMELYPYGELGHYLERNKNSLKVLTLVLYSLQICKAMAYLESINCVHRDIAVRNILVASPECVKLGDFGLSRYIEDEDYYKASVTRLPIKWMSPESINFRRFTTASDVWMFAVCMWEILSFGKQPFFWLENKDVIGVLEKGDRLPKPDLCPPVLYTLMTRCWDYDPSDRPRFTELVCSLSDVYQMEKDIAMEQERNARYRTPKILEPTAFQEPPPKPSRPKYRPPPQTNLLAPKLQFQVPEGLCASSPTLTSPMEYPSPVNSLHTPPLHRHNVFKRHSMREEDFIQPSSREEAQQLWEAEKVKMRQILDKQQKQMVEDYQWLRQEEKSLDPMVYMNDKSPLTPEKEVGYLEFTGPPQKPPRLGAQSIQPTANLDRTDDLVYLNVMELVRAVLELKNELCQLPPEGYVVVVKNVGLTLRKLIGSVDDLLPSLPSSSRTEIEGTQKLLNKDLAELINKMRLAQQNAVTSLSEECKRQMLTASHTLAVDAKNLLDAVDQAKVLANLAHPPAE
Protocol: The kinase assays were performed and quantified according to the manufacturer’s instructions using the ADP-Glo™ Kinase Assay Kit for FAK (Promega, V1971), PYK2 (Promega, V4083) and InsR (Promega, V3901). Each kinase reaction mixture was prepared to contain the compounds of interest. After thorough pipetting, 25 μL of the mixture was added to each well and incubated for 1 h at room temperature. Subsequently, 25 μL of ADP-Glo reagent was added, followed by a 40 m incubation at room temperature. Next, 50 μL of the kinase detection reagent was added, and the mixture was incubated for an additional 30 m at room temperature. Luminescence was measured using the Tecan Spark 10M (Integration time: 1 s) (Männedorf, Switzerland).

What does the source list for `CNC(=O)c1ccc(Nc2ncc(C(F)(F)F)c(NCc3nccnc3N(C)S(C)(=O)=O)n2)cc1` [VS-6063, Defactinib]?
TGI ([1]; 80 mg/kg po QD, day 14): 54.6%; IC50 [2]: > 10 µM; IC50 [3]: 427 nM; IC50 [4]: 1190 nM; tumor growth inhibition (in words) ([5]; 80 mg/kg): ineffective; TGI ([5]; 80 mg/kg po QD): 10.1%; TGI ([6]; 80 mg/kg po QD): 110.9%

With `CONC(=O)c1ccccc1Nc1cc(Nc2cc(C)nn2C(C)C)ncc1Cl` [GSK2256098] as the compound, how does the IC50 [2] read?
The IC50 was over 10 µM.

And the IC50 [3]?
Its IC50 is 1120 nM.

And the IC50 [4]?
Its IC50 is over 10000 nM.

And the “serum-stimulated migration of MDA-MB-231 cells” value [7]?
Its value is “did not affect”.

For `CNC(=O)c1cccc(C)c1Nc1nc(Nc2ccc(N3CCN(C4C5CC6CC4CC(O)(C6)C5)CC3)cc2OC)ncc1C(F)(F)F` (stereo not drawn) [SJP1602, 2-((2-((4-(4-((2s,5r)-5-hydroxyadamantan-2-yl)piperazin-1-yl)-2-methoxyphenyl)amino)-5-(trifluoromethyl)pyrimidin-4-yl)amino)-N,3-dimethylbenzamide], which “formation of MDA-MB-231 colonies” value [8] is on record?
Its value is “dose-dependent decrease”.

What about the IC50 [9] of the same compound?
The IC50 was 7.28 µM.

And the IC50 [10]?
The IC50 was 9.62 µM.

What about the “invasion of MDA-MB-231 cells” value [11] of the same compound?
Its value is “markedly inhibited”.

And the TGI ([1]; 20 mg/kg po QD, day 14, 20 mg/kg)?
Its TGI is 72% and 72.1%.

What about the TGI ([1]; 40 mg/kg po QD, day 14, 40 mg/kg) of the same compound?
The TGI was 74%.

What about the TGI ([1]; 80 mg/kg po QD, day 14, 80 mg/kg) of the same compound?
Its TGI is 81% and 81.3%.

What about the “tumor mass and weight” value ([1]; 80 mg/kg, day 14) of the same compound?
Its value is “significant reduction”.

And the IC50 [2]?
The IC50 was 4.71 µM.

And the IC50 [3]?
Its IC50 is 742 nM.

And the IC50 [12]?
The IC50 was over 10 µM.

What about the “signs of toxicity or weight loss in xenograft mice” value [13] of the same compound?
The value was “no signs of toxicity or significant weight loss”.

What about the IC50 [4] of the same compound?
Its IC50 is 184 nM.

What about the “tumor growth inhibition (in words)” value ([5]; 20 mg/kg) of the same compound?
The value was “pronounced inhibition of cancer growth”.

And the TGI ([5]; 20 mg/kg po QD)?
The TGI was 76.0%.

And the TGI ([5]; 80 mg/kg po QD)?
The TGI was 77.5%.

What about the tumor weight ([5]; 80 mg/kg, day 21) of the same compound?
Its tumor weight is “did not statistically significantly decrease”.

What about the “serum-stimulated migration of MDA-MB-231 cells” value [7] of the same compound?
Its value is “considerably reduced”.

And the IC50 [14]?
The IC50 was 24.7 ± 0.919 nM.

What about the TGI ([6]; 20 mg/kg po QD) of the same compound?
The TGI was 88.9%.

And the TGI ([6]; 80 mg/kg po QD)?
The TGI was 114.1%.

And the “tumor volume and weight” value ([6]; 80 mg/kg, day 56)?
Its value is “substantial reduction”.
